Measured values: publication PMC8619673 (Cells, 2021)

Tests used:
Aβ42 peptide = target: T1, Aβ42 peptide (Homo sapiens, UniProt P05067); test: Thioflavin T aggregation assay; format: biochemical
T1 construct: Aβ42 peptide (10 μM; Kelowna Int’l Scientific Inc., New Taipei City, Taiwan); purchased Kelowna Int’l Scientific Inc., New Taipei City, Taiwan
Method: To form Aβ aggregation, Aβ42 peptide (10 μM; Kelowna Int’l Scientific Inc., New Taipei City, Taiwan) was incubated with tested compounds (5–20 μM) in 150 mM NaCl and 20 mM Tris-HCl (pH8.0) at 37 °C for 48 h. Thioflavin T (10 μM; Sigma-Aldrich) was added to the Aβ mixture and incubated at room temperature for 5 min. The fluorescence intensity was recorded at 420 nm excitation and 485 nm emission by an FLx800 microplate reader (Bio-Tek, Winooski, VT, USA). Half maximal effective concentration (EC50) was estimated by a method of interpolation.

Aβ-GFP SH-SY5Y cells = test: Neurite outgrowth analysis; format: cell-based, Human; conditions: 5 µM; for Neurite total length: induced untreated 23.9, uninduced 31.2; for Neurite length: untreated 25.3
Method: Aβ-GFP SH-SY5Y cells (6 × 10^4 cells) were seeded on a 24-well plate with retinoic acid (10 µM) on day 1. Tested coumarins (5 µM) and doxycycline (5 μg/mL) were added on day 2, as described. On day 8, the cells were washed with phosphate-buffered saline (PBS) twice and fixed in 4% paraformaldehyde at 4 °C for 15 min. Cells were permeabilized with Triton X-100 (0.1%) for 10 min, blocked with bovine serum albumin (3%) for 20 min, and stained with anti-neuronal TUBB3 antibody (1:1000; Covance, Princeton, NJ, USA) at 4 °C overnight. The next day, cells were washed with PBS twice and stained by a secondary donkey anti-rabbit Alexa Fluor® 555 antibody (1:1000; Thermo Fisher Scientific) and 4′,6-diamidino-2-phenylindole (DAPI; 0.1 µg/mL; Sigma-Aldrich) at room temperature for 1 h. Neuronal images from at least 60 individual fields (150–250 neurons per field) per experiment were captured at excitation 531/40 nm and emission 593/40 nm wavelengths using an ImageXpress micro confocal high-content imaging system (Molecular Devices). Neurite total length (μm) and numbers of process (the number of primary neurites originated from the cell body of a neuron) and branch (the number of secondary neurites extended from primary neurites) were analyzed using a MetaXpress neurite outgrowth application module (Molecular Devices). For each sample, around 6000 cells were analyzed in each of three independent experiments.
(§1) Lentiviral short hairpin RNA (shRNA) targeting TRKB (TRCN0000002243, TRCN0000002245, and TRCN0000002246) and a negative-scrambled control (TRC2.Void) were obtained from the National RNAi Core Facility, IMB/GRC, Academia Sinica (Taipei, Taiwan). As described, cells were plated on 6- or 24-well plates, with retinoic acid added on day 1. Cells were infected with lentivirus (multiplicity of infection, 3 for each shRNA), with polybrene (8 µg/mL; Sigma-Aldrich) on the next day. Cells were pretreated with tested compounds (5 µM) for 8 h after changing medium, followed by doxycycline on day 3. Cells were collected for further analysis on day 9. The hairpin sequences of targeting shRNA were below: • TRCN0000002243: 5’-[…]ctcgag[…]-3’ • TRCN0000002245: 5’-[…]ctcgagATGTT-[…]-3’ • TRCN0000002246: 5’-[…]ctcgag[…]-3’ • TRC2.Void: 5’-[…]ctcgag[…]-3’

TRKB = test: Western blot, TRKB and p-TRKB; format: cell-based, Human; conditions: 5 µM; for p-TRKB (Y516) protein level relative to uninduced cells (100%): induced untreated 40%; for p-TRKB (Y817) protein level relative to uninduced cells (100%): induced untreated 71%; for TRKB expression relative to uninduced cells (100%): scrambled shRNA-infected Aβ-expressing cells, untreated 80%
Method: (§2) Cellular proteins were prepared using a lysis buffer containing NaCl (150 mM), ethylene diamine tetraacetic acid (EDTA, 1 mM, pH8.0), Tris-HCl (50 mM, pH8.0), ethylene glycol tetraacetic acid (EGTA, 1 mM, pH8.0), sodium dodecyl sulfate (SDS, 0.1%), sodium deoxycholate (SD, 0.5%), Triton X-100 (1%), and protease (Sigma-Aldrich), and phosphatase (Abcam, Cambridge, MA, USA) inhibitor cocktails. After quantitation by protein assay kit (Bio-Rad, Hercules, CA, USA), 20 µg proteins were separated by SDS-polyacrylamide (10%) gel electrophoresis and transferred to polyvinylidene difluoride (PVDF) membranes (Sigma-Aldrich) using a Mini Trans-Blot cell (Bio-Rad). After blocking, the membrane was probed with anti-TRKB, anti-p-TRKB (Y516), anti-p-TRKB (Y817) (1:500; Cell Signaling, Danvers, MA, USA), anti-ERK, anti-p-ERK (T202/Y204) (1:1000; Cell Signaling), anti-AKT, anti-p-AKT (S473) (1:1000; Cell Signaling), anti-CREB, anti-p-CREB (S133) (1:1000; Millipore, Billerica, MA, USA), anti-BDNF, anti-BCL2 (1:500; Santa Cruz Biotechnology, Santa Cruz, CA, USA), anti-BAX (1:1000; Cell Signaling), anti-β-tubulin (1:500; Sigma-Aldrich), or anti-GAPDH (1:1000, MDBio, Taipei, Taiwan) antibody. The immune complexes were detected using goat anti-mouse or goat anti-rabbit IgG antibody conjugated with horseradish peroxidase (1:5000; GeneTex, Irvine, CA, USA) and chemiluminescent substrate (Millipore).
as §1

AKT = test: Western blot, p-AKT; format: cell-based, Human; conditions: 5 µM; induced untreated 81%
Method: as §2

ERK = test: Western blot, p-ERK; format: cell-based, Human; conditions: 5 µM; induced untreated 79%
Method: as §2

CREB = test: Western blot, p-CREB; format: cell-based, Human; conditions: 5 µM; induced untreated 81%
Method: as §2

BDNF = test: Western blot, BDNF; format: cell-based, Human; conditions: 5 µM; for BDNF 14 kDa protein level relative to uninduced cells (100%): induced untreated 42%; for BDNF 32 kDa protein level relative to uninduced cells (100%): induced untreated 88%
Method: as §2

BCL2 = test: Western blot, BCL2; format: cell-based, Human; conditions: 5 µM; induced untreated 72%
Method: as §2

BAX = test: Western blot, BAX; format: cell-based, Human; conditions: 5 µM; induced untreated 182%
Method: as §2

[1] = 1,1-diphenyl-2-picrylhydrazyl radical scavenging; conditions: data not shown
[2] = TRKB shRNA-infected cells, untreated 2.9
[3] = induced untreated 1.8, uninduced 2.8
[4] = induced untreated 3.3, uninduced 4.4
[5] = scrambled shRNA-infected cells, untreated 2.4
[6] = scrambled shRNA-infected cells, untreated 3.5

T1 sequence (P05067 672-713 limits assumed): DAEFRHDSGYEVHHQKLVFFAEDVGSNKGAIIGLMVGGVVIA

| SMILES | Aβ aggregation inhibition (in words) (Aβ42 peptide; compound 20 μM, thioflavin T assay) | Neurite process number (Aβ-GFP SH-SY5Y cells; [2]) | Neurite branch number (Aβ-GFP SH-SY5Y cells; [3]) | Neurite process number (Aβ-GFP SH-SY5Y cells; [4]) | Neurite total length (Aβ-GFP SH-SY5Y cells) | Neurite branch number (Aβ-GFP SH-SY5Y cells; [5]) | Neurite process number (Aβ-GFP SH-SY5Y cells; [6]) | Neurite length (Aβ-GFP SH-SY5Y cells; scrambled shRNA-infected cells) | p-TRKB (Y516) protein level relative to uninduced cells (100%) (TRKB) | p-TRKB (Y817) protein level relative to uninduced cells (100%) (TRKB) | TRKB expression relative to uninduced cells (100%) (TRKB) | p-AKT (S473) protein level relative to uninduced cells (100%) (AKT) | p-ERK (T202/Y204) protein level relative to uninduced cells (100%) (ERK) | p-CREB (S133) protein level relative to uninduced cells (100%) (CREB) | BDNF 14 kDa protein level relative to uninduced cells (100%) (BDNF) | BDNF 32 kDa protein level relative to uninduced cells (100%) (BDNF) | BCL2 protein level relative to uninduced cells (100%) (BCL2) | BAX protein level relative to uninduced cells (100%) (BAX) | 1,1-diphenyl-2-picrylhydrazyl radical scavenging activity [1] | Thioflavin T fluorescence (Aβ aggregation) (Aβ42 peptide; compound 20 µM, Aβ42 10 μM, 37 °C 2 days, 621 AU without compound, 151 AU without incubation) |
| --- | --- | --- | --- | --- | --- | --- | --- | --- | --- | --- | --- | --- | --- | --- | --- | --- | --- | --- | --- | --- |
| CCOC(=O)c1cc2c(O)cccc2oc1=O [ZN014, ethyl 5-hydroxy-2-oxo-2H-chromene-3-carboxylate] | did not inhibit Aβ aggregation | 3.5 | 2.4–2.5 | 4.2–4.3 | 29.1–29.3 μm | 3.0–3.1 | 3.9–4.0 | 30.7–30.9 µm | 92–100% | 94–108% | 77–81% | 91–110% | 95–107% | 98–101% | 124–140% | 113–119% | 104–116% | 126% | no 1,1-diphenyl-2-picrylhydrazyl radical scavenging activity | – |
| O=C(/C=C/c1ccccc1O)c1c(O)c2ccccc2oc1=O [ZN015, (E)-4-hydroxy-3-(3-(2-hydroxyphenyl)acryloyl)-2H-chromen-2-one] | – | 3.5 | 2.4–2.5 | 4.2–4.3 | 29.1–29.3 μm | 3.0–3.1 | 3.9–4.0 | 30.7–30.9 µm | 92–100% | 94–108% | 77–81% | 91–110% | 95–107% | 98–101% | 124–140% | 113–119% | 104–116% | 126% | no 1,1-diphenyl-2-picrylhydrazyl radical scavenging activity | 403 AU |
